Assay results from patent publication US6043274A, “Method of treating diabetic cardiomyopathy” (priority 1999, dated 2000).

How the values were obtained:
[1] = tested on: aldose reductase (human recombinant, expressed in SF 9 cells); experiment: Aldose reductase assay, NADPH dependent reduction of glyceraldehyde; format: biochemical; settings: glyceraldehyde as substrate, 37° C., plot only, no value given
Experimental: Aldose reductase assays were as described in Nishimura C., Yamaoka T., Mizutani M., Yamashita K., Akera T., Tanimoto T., Purification And Characterization Of The Recombinant Human Aldose Reductase Expressed In Baculovirus System, Biochem. Biophys. Acta, Jun. 24, 1991; 1078(2):171-8.
Briefly, Dimesna (0-20 μM) was incubated at 37° C. with aldose reductase (0.0016 units, human recombinant, expressed in SF 9 cells) and NADPH (0.15 mM) in sodium phosphate buffer (100 mM, pH 6.2). To initiate assays, glucose (10-150 mM) was added to reactions and the decrease in absorbance at 340 nm (oxidation of NADPH) was monitored. Assays were run in duplicate or triplicate. Slopes were calculated using Varian-Cary software package 2.0 and averaged. In all cases errors were 4% or less. Lineweaver Burk analysis (Enzyme Kinetics, version 1.61) was used to calculate inhibition constants.
Aldose reductase assays were as described above. Dimesna (0-30 mM) was evaluated for its effect on the NADPH dependent reduction of glyceraldehyde (0.050-6 mM) to aldose at 37° C. Assays were run in duplicate or triplicate. Slopes were calculated using Varian-Cary software package 2.0 and averaged. In all cases errors were 4% or less. Lineweaver Burk analysis (Enzyme Kinetics, version 1.61) was used to calculate inhibition constants.

[2] = tested on: mice; settings: intravenously; cited from earlier work
[3] = tested on: dogs; settings: intravenously; cited from earlier work
[4] = tested on: diabetic retinopathy; settings: humans, mainly in the 1980s; cited from earlier work

SMILES | Inhibition of Aldose Reductase (Lineweaver Burk plot) [1] | dose administered with no adverse effects [2] | dose administered with no adverse effects [3] | efficacy in slowing the progress of diabetic retinopathy [4] | tolerability in patients [4]
O=S(=O)([O-])CCSSCCS(=O)(=O)[O-].[Na+].[Na+] [Dimesna, disodium 2,2'-dithiobis ethane sulfonate] | Inhibition | > 3750 mg/kg | > 3750 mg/kg |  | 
O=C1NC(=O)[C@@]2(CCOc3ccc(F)cc32)N1 [sorbinil] |  |  |  | some efficacy | not well tolerated
